Measured values reported in paper PMC7942396, “Drug Repurposing Screen for Compounds Inhibiting the Cytopathic Effect of SARS-CoV-2” (Frontiers in Pharmacology, 2021).
pEC50: −log10 of the molar value. Counter-ions that a name gives are not always drawn. Like-named read-outs stand apart in the source and are kept apart here.

Key:
[1] = tested on: SARS-CoV-2 (USA_WA1/2020); test: microbe, parasite or virus in culture; type: cell-based; settings: for pEC50: read-out: CPE EC50
[2] = Vero E6 cells without virus, 72 h
[3] = […], DMSO 0%, no-virus control 100%, hit confirmation
[4] = cytotoxicity counter-assay, Vero E6 cells without virus
[5] = read-out: Cytotox CC50, cytotoxicity counter-assay, Vero E6 cells without virus
[6] = SARS-CoV-2 CPE assay, Vero E6 cells
[7] = SARS-CoV-2 CPE assay, Vero E6 cells, confirmed anti-SARS-CoV-2 compounds
[8] = SARS-CoV-2 CPE assay, Vero E6 cells, efficacy

Row | Compound | % Cytotox (Vero E6 cells; [4]) | CC50 (Vero E6 cells; [5]) | pEC50 [1, 7] | CPE % Efficacy [1, 8] | also measured
1 | CC1(C)CN2C(CSC(=NC3CCCCC3)NC3CCCCC3)=CSC2=N1.Cl.Cl [IT1t dihydrochloride, reference compound] |  |  |  |  | % Cytotox (Vero E6 cells; [2]): <30%; CPE % Efficacy [1, 3]: 96.3%; pEC50 [1]: 5.46
2 | Cl.O=C1Nc2nc(-c3c(O)cccc3OCC3CC3)cc([C@@H]3CCCNC3)c2CO1 [Bay-65-1942 hydrochloride] | 23.5% | 11.2 µM |  |  | CPE % Efficacy [1, 6]: 53.9%; pEC50 [1, 6]: 4.95
3 | OCCCNc1cc(-c2ccnc(Nc3cccc(Cl)c3)n2)ccn1 [CGP-60474] |  |  |  |  | % Cytotox (Vero E6 cells): 61.3%; CC50 (Vero E6 cells): 0.11 µM; CPE % Efficacy [1]: 104.5%; pEC50 [1]: 5.20
4 | CCOC(=O)N[C@@H]1CC[C@@H]2[C@@H](C1)C[C@H]1C(=O)O[C@H](C)[C@H]1[C@H]2/C=C/c1ccc(-c2cccc(F)c2)cn1.O=S(=O)(O)O [Vorapaxar Sulfate] | 32.4% | 12.6 µM | 5.35 | 57.7% | 
5 | CO/C1=C\C(C)=C\[C@@H](C)[C@@H](O)[C@@H](C)C/C(C)=C/C=C/[C@H](OC)[C@@H]([C@@H](C)[C@@H](O)[C@H](C)[C@@]2(O)C[C@@H](O)[C@H](C)[C@@H](C(C)C)O2)OC1=O [Bafilomycin A1 from Streptomyces griseus] | 58.6% | 0.1 µM | 7.95 | 69.3% | 
6 | COc1ccc(CN2CCN(CCCSc3cc(C(C)(C)C)c(O)c(C(C)(C)C)c3)CC2)c(OC)c1OC [S-15176 difumarate salt, reference compound] |  |  |  |  | % Cytotox (Vero E6 cells; [2]): <30%; CPE % Efficacy [1, 3]: 127.4%; pEC50 [1]: 5.42
7 | COc1ccccc1Nc1nc(-c2sc(NC(C)=O)nc2C)cs1 [JNJ0966] | 61.5% | 11.2 µM | 4.95 | 38.6% | 
8 | CC(C)c1onc(-c2c(Cl)cccc2Cl)c1COc1ccc(/C=C/c2cccc(C(=O)O)c2)c(Cl)c1 [GW-4064X] | 60.4% |  |  |  | CPE % Efficacy [1, 6]: 73.5%; pEC50 [1, 6]: 4.90
9 | Cc1ccc(C(=O)Nc2cccc(C(F)(F)F)c2)cc1Nc1nc(-c2cccnc2)nc2c1cnn2C [NVP-BHG712] |  |  | 5.60 | 123.5% | % Cytotox (Vero E6 cells): 58.4%; CC50 (Vero E6 cells): 3.98 µM
10 | COc1ccc(C2CC(c3ccccc3)=NN2c2ccc(S(N)(=O)=O)cc2)cc1 (centres unmarked) [ML-141] | 23.8% |  | 5.05 | 65.2% | 
11 | COc1cccc2c1CCCC2CCCN1CCN(C2CCCCC2)CC1 (centres unmarked) [PB-28] | 19.5% | 12.6 µM |  |  | CPE % Efficacy [1, 6]: 88.6%; pEC50 [1, 6]: 4.95
12 | Cn1nc(C(C)(C)C)cc1C(=O)N[C@@H](Cc1cccc(Cl)c1)C(=O)NCC#N [Cathepsin Inhibitor 1, reference compound] |  |  |  |  | % Cytotox (Vero E6 cells; [2]): <30%; CPE % Efficacy [1, 3]: 114.4%; pEC50 [1]: 6.60
13 | O=C(CCC1CCN(Cc2ccccc2)CC1)c1ccc2c(c1)NCCCC2.O=C(O)/C=C/C(=O)O [Zanapezil fumerate] | 0.0% |  | 4.95 | 63.3% | 
14 | Cc1cc(N2CCN(C(=O)Oc3ccc(-c4ccccc4)cn3)CC2)c2ccccc2n1 [NCGC00386928] | 68.1% | 12.6 µM |  |  | CPE % Efficacy [1, 6]: 63.4%; pEC50 [1, 6]: 4.90
15 | N=C(N)Nc1ccc(C(=O)Oc2ccc3cc(C(=N)N)ccc3c2)cc1 [nafamstat, reference compound] |  |  |  |  | Activity in the Vero E6 assay [1]: not active
16 | CN(C)CCCN1c2ccccc2Sc2ccc(C(F)(F)F)cc21 [Triflupromazine hydrochloride] |  |  |  |  | pEC50 ([1]; Severe acute respiratory syndrome coronavirus 2, Vero C1008, SARS-CoV-2 CPE assay, Vero E6 cells, confirmed anti-SARS-CoV-2 compounds): 5.00; Emax ([1]; Severe acute respiratory syndrome coronavirus 2, Vero C1008, SARS-CoV-2 CPE assay, Vero E6 cells, efficacy, read-out: CPE % Efficacy): 77.3%
17 | CCC(C)CNCC(=O)N1CCc2sccc2C1COc1cccc(C)c1.Cl (centres unmarked) [RU-SKI 43 (hydrochloride)] | 21.4% | 8.91 µM |  |  | 
18 | CCCCCCCc1ccc(CCc2cccc(O)c2C(=O)O)cc1 [MG-149] | 23.4% |  |  |  | 
19 | Oligomycin A |  |  | 5.40 | 104.5% | 
20 | CN(C)C(=O)COC(=O)Cc1ccc(OC(=O)c2ccc(NC(=N)N)cc2)cc1 [camostat, reference compound] |  |  |  |  | Activity in the Vero E6 assay [1]: not active
